What all share (assay): inhibition of tumour cell growth, NCI panel, 48 h
For test [1], the system named is A549 NSCLC.
The test system of test [2] is COLO 205 colon.
Test [3] deals with EKVX NSCLC.
For test [4], the system named is IGROV1 ovarian.
In test [5] the test system is KM12 colon.
For test [6], the system named is KM20L2 colon.
In test [7] the test system is LOX IMVI melanoma.
Test [8] has as its system NCI-H226 lung.
Test [9] has as its system NCI-H23 lung.
The test system of test [10] is SF-268 CNS.
Test [11] concerns SK-MEL-2 melanoma.
In test [12] the test system is SK-MEL-28 melanoma.
The test system of test [13] is SK-MEL-5 melanoma.
Test [14] concerns SNB-19 CNS.
Test [15] has as its system SNB-75 CNS.
Test [16] concerns SNB-78 CNS.
For test [17], the system named is SW-620 colon.
Test [18] has as its system U251 CNS.
Test [19] relates to UACC-257 melanoma.
The test system of test [20] is UO-31 renal.

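Protocol summary: plate cells (96-well), add compound at 5 concentrations, incubate 48 h, interpolate endpoints linearly. TGI marks complete inhibition of growth.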 A value given as a limit tells only on which side of the number the result lay.

Consider `NCc1ccccc1-c1c2nc(c(-c3ccccc3CN)c3ccc([nH]3)c(-c3ccccc3CN)c3nc(c(-c4ccccc4CN)c4ccc1[nH]4)C=C3)C=C2`, for which the TGI in [1] was 46.9 µM; in test [2], 97.7 µM; in [3] it was 48.7 µM; in test [4] it was 59.4 µM; in test [5] it was 50.7 µM; in test [6], 63 µM. Besides, the TGI is 56.3 µM in [7]; 33.4 µM in test [8]; 58.4 µM in test [9]; greater than 100 µM in test [10]; 73.9 µM in test [11]; 43.4 µM in test [12]. For the same compound, the TGI in test [13] is 63.7 µM; in [14] it was 43.5 µM; in test [15], 24.7 µM; in test [16], 40.9 µM; in test [17] it was greater than 100 µM; in test [18] it was 51.6 µM. In addition, the TGI came to 47.7 µM in test [19] and 42.6 µM in test [20].

In the case of `CC1(C)N=C(N)N=C(N)N1c1ccc(CCc2ccccc2)cc1`, the TGI is greater than 100 µM in [1]; 24.1 µM in [2]; 91.5 µM in [3]; 5.28 µM in [4]; greater than 43.1 µM in test [5]; greater than 100 µM in test [6]. The TGI in [7] is greater than 100 µM; in test [8] it was 59.3 µM; in test [9] it was greater than 100 µM; in [10], greater than 65 µM; in [11], greater than 100 µM; in test [12] it was greater than 86.7 µM. Besides, the TGI in test [13] is 9.63 µM; in test [14], greater than 41.1 µM; in [15] it was greater than 94.3 µM; in test [16] it was greater than 100 µM; in test [17], greater than 100 µM; in [18], greater than 100 µM. For the same compound, the values for the TGI in test [19] and in [20] were 32 µM and greater than 100 µM, respectively.

The record behind these values is PubChem BioAssay (NCI).
